The structures appear in SMILES notation. Read-outs that look alike come from different tables or passages of the source.

Series [1] has as its system orchidectomized male Wistar rats. As to the kind of experiment: In vivo modified Hershberger assay (Test 2). Particulars: for luteinizing hormone (LH) levels / weights of levator ani compared to prostate: 14 days treatment; for luteinizing hormone (LH) levels: in comparison to ORX animals; for plasma drug concentration: day 15, 3 hours after last dose; for weights of levator ani compared to prostate: orchidectomized male rats. Also on record: species or system rat. The procedure:
The test article Testosterone Propionate is dissolved using 10% ethanol, 90% corn oil. Ostarine is suspended in 1% CMC, 0.1% Tween-80, water. Compounds of examples 1 and 5 are dissolved in 50% PEG 200 and 50% of saline. Ostarine is administered orally at 1 ml/kg volume. Testosterone Propionate, Compounds of examples 1 and 5 are administered subcutaneously to 14 days prior orchidectomized male rats at 1 ml per kg body weight for a period of 14 days. Each group of 6 rats receives dosages of 0.01, 0.1, 1 and 10 mg/kg. 6 animals each serves as sham control and ORX control and are administered vehicle at 1 ml/kg.
Testosterone Propionate is subcutaneously administered at doses of 0.03, 0.1, 0.3, 1.3 and 10 mg/kg. Ostarine is given orally at doses of 0.001, 0.003, 0.01, 0.03, 0.1, 0.3, 1.3 and 10 mg/kg.
The various investigations like mortality, clinical signs, body weight, food consumption, drug concentration analysis (day 15), clinical pathology and gross pathology parameters are performed on all groups.
Evaluation of Testosterone Propionate, Ostarine, examples 1 and 5 in modified Hershberger assay in male wistar rats was conducted at the Department of Preclinical Biology, Aurigene Discovery Technologies Ltd., Bangalore, India.

The target in a further series is T1, androgen receptor (AR) (Homo sapiens, UniProt P10275).
T1 construct: transfecting C2C12 cells with a plasmid containing full-length AR along with an AR response element linked to luciferase; expressed in transfected cells; host or cells: mouse myoblastic C2C12 cells (ATCC CRL-1772), transient transfection with Lipofectamine 2000
T1 sequence (P10275 1-920): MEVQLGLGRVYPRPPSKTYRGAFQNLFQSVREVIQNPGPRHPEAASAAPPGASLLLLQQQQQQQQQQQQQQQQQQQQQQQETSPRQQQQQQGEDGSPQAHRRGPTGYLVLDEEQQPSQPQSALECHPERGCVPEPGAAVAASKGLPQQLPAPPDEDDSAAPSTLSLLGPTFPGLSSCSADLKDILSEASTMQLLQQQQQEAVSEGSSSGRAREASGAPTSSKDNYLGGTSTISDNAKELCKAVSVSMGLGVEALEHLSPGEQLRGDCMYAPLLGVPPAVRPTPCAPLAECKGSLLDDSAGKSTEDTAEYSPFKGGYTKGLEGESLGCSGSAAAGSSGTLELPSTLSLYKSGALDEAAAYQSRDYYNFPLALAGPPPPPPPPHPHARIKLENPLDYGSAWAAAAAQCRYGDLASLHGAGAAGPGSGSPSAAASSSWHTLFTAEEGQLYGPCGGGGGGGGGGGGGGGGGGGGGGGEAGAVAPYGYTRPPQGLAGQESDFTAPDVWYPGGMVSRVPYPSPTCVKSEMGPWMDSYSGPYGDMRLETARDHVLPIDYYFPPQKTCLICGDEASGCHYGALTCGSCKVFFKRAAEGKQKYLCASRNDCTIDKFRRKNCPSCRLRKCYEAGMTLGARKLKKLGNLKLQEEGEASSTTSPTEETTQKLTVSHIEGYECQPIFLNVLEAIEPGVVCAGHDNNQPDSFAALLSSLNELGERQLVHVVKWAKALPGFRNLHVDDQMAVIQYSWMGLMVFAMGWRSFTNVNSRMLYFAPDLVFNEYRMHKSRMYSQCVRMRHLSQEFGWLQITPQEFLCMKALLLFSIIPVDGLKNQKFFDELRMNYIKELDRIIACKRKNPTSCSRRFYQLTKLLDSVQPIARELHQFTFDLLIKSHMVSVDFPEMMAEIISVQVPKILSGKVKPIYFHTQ
Kind of series: AR transcriptional activation luciferase reporter assay in C2C12 cells (Test 1). It counts as cell-based. The procedure: A suitable assay to determine the ability of a ligand to transcriptionally activate androgen receptor (AR) is carried out using mouse myoblastic C2C12 cells. The assay involves transfecting C2C12 cells with a plasmid containing full-length AR along with an AR response element linked to luciferase (2XIDR17). The luminescence read-out at the end of the assay is measured using Victor 3 and is a direct measure of the transcriptional activity. The assay has been validated using the reference compound, BMS-564929, for which EC50 values have been reported in a similar set-up. Other tool compounds that have been used for assay validation are GSK-420A, Andarine, putative Ostarine, and LGD-2226.
C2C12 cells were obtained from ATCC (Cat # CRL-1772) and maintained in DMEM modified to contain 4 mM L-glutamine, 4.5 g/L glucose, 1 mM sodium pyruvate and 1.5 g/L sodium bicarbonate and 10% FBS.
AR-FL in pcDNA 3.1(+) and 2XIDR17 in pGL4.26 plasmids prepared using Genelute plasmid miniprep kit from Sigma Cat # PLED35
• C2C12 cells were seeded in a 96-well plate in DMEM (Dulbecco's Modified Eagle Medium) without phenol red and containing 10% CS-FBS (Charcoal-stripped Fetal Bovine Serum) at 8000 cells/well. • The next day, cells were transfected with an equimolar ratio of (Androgen Receptor-Full length) AR-FL and 2XIDR17-Luciferase at a total plasmid concentration of 200 ng/well using Lipofectamine 2000 following manufacturer's protocol. • For the transfection, 83 ng of AR-FL and 117 ng of 2XIDR17-Luciferase were in 12.5 μl of OptiMEM—Mix A. 0.4 μl of Lipofectamine 2000 was added to 12.5 μl of OptiMEM and incubated for 5 min at room temperature—Mix B. The two mixes A and B were mixed and incubated at room temperature for an additional fifteen minutes. An additional 50 μl of OptiMEM was added, gently mixed and this mixture was added to the cells in the 96-well plate. The above quantities are requirements per well of a 96-well plate. Master mixes were made for the entire plate, with proportional quantity of reagents being used. • 5 h after transfection, compounds were added to the wells in DMEM without phenol red and containing 10% CS-FBS, maintaining a final DMSO concentration of 0.5%. A typical dose response curve starts at 10 μM and includes a 7-point, log dilution, done in triplicates. • After overnight incubation with the compounds, 100 ul of working solution of Steadyglow reagent was added to the wells. • The plates were placed in a shaker for 15 min at the end of which the lysate containing luciferase was transferred to a white flat-bottom plate and read under a luminescence setting in Victor. • Background subtracted counts (Luminescence from DMSO control wells is considered the background) are used to calculate percentage activity, expressed relative to activity with 1 μM (Dihydrotestosterone) DHT (at least two sets of triplicates for 1 μM DHT are included per plate). Data Fitting: • The EC50 curves for the compounds for 8 compound concentrations were fitted by the respective function using non-linear least-squares regression in Graphpad Prism 4.0 (Graphpad Software, San Diego, Calif., USA).
In general terms: In a reporter assay the amount or activity of a reporter protein is the signal.

Turning to `CO[C@@H]1C(c2ccc(C#N)c(Cl)c2C)=NN2CC[C@H](O)[C@@H]12` [Example 1, 2-chloro-4-((3S,3aS,4S)-4-hydroxy-3-methoxy-3a,4,5,6-tetrahydro-3H-pyrrolo[1,2-b]pyrazol-2-yl)-3-methylbenzonitrile], in series [1], the “luteinizing hormone (LH) levels” value is “concurrent decrease of LH levels”, the plasma drug concentration entry is “dose dependent increase” and the “weights of levator ani compared to prostate” value (“weights … compared to prostate” below) is on record as “dose dependent selective increase in weights of levator ani compared to prostate”. In addition, at androgen receptor (AR) (mouse myoblastic C2C12 cells transfected with AR-FL and 2XIDR17-luciferase, read-out: Biological activity (C2C12 cell) EC50), the 50% effective concentration (EC50) (commonly the concentration needed to bring the measured effect to its halfway point) stood at 0.5 nM.
Turning to `CCO[C@@H]1C(c2ccc(C#N)c(Cl)c2C)=NN2CC[C@H](O)[C@@H]12` [Example 5, 2-chloro-4-((3S,3aS,4S)-3-ethoxy-4-hydroxy-3a,4,5,6-tetrahydro-3H-pyrrolo[1,2-b]pyrazol-2-yl)-3-methylbenzonitrile], in series [1], the “luteinizing hormone (LH) levels” value was “concurrent decrease of LH levels”, the plasma drug concentration entry was “dose dependent increase” and the “weights … compared to prostate” value is given as “dose dependent selective increase in weights of levator ani compared to prostate”. Moreover, on androgen receptor (AR), it took 1.2 nM to reach a half-maximal effect (EC50).
The compound `COCCO[C@@H]1C(c2ccc(C#N)c(Cl)c2C)=NN2CC[C@@H](F)[C@@H]12` [Example 22, 2-chloro-4-((3S,3aR,4R)-4-fluoro-3-(2-methoxyethoxy)-3a,4,5,6-tetrahydro-3H-pyrrolo[1,2-b]pyrazol-2-yl)-3-methylbenzonitrile] showed a 50% effective concentration (EC50) at androgen receptor (AR) of 0.98 nM.
Still for that read-out and setting: as for `Cc1c(C2=NN3CC[C@@H](F)[C@H]3[C@@H]2OCCF)ccc(C#N)c1Cl` [Example 23, 2-chloro-4-((3S,3aR,4R)-4-fluoro-3-(2-fluoroethoxy)-3a,4,5,6-tetrahydro-3H-pyrrolo[1,2-b]pyrazol-2-yl)-3-methylbenzonitrile], the figure is 0.41 nM.
`COCCO[C@@H]1C(c2ccc(C#N)c(Cl)c2C)=NN2CC(F)(F)C[C@@H]12` [Example 24, 2-chloro-4-((3S,3aS)-5,5-difluoro-3-(2-methoxyethoxy)-3a,4,5,6-tetrahydro-3H-pyrrolo[1,2-b]pyrazol-2-yl)-3-methylbenzonitrile] showed an EC50 at androgen receptor (AR) of 5.6 nM.
Still for that read-out and setting: as for `CO[C@@H]1C(c2ccc(C#N)c(Cl)c2C)=NN2C[C@H](O)[C@H](O)[C@@H]12` [Example 25, 2-chloro-4-((3S,3aS,4R,5S)-4,5-dihydroxy-3-methoxy-3a,4,5,6-tetrahydro-3H-pyrrolo[1,2-b]pyrazol-2-yl)-3-methylbenzonitrile], the figure is 51.2 nM; as for `COCCO[C@@H]1C(c2ccc(C#N)c(Cl)c2C)=NN2C[C@H](O)C[C@@H]12` [Example 26], 158 nM.
Turning to `COCCO[C@@H]1C(c2ccc(C#N)c(Cl)c2C)=NN2C[C@@H](F)C[C@@H]12` [Example 27], the EC50 on androgen receptor (AR) stood at 65.8 nM.
The compound `COCCO[C@@H]1C(c2ccc(C#N)c(Cl)c2C)=NN2CC(=O)C[C@@H]12` [Example 28] displayed a concentration for a half-maximal effect (EC50) at androgen receptor (AR) of 175 nM.
Same read-out and setting: as for `COCCCO[C@@H]1C(c2ccc(C#N)c(Cl)c2C)=NN2C[C@H](O)C[C@@H]12` [Example 29], the figure is 40 nM; as for `COCCCO[C@@H]1C(c2ccc(C#N)c(Cl)c2C)=NN2CC(=O)C[C@@H]12` [Example 30], 56 nM; as for `COCCCO[C@@H]1C(c2ccc(C#N)c(Cl)c2C)=NN2CC(F)(F)C[C@@H]12` [Example 31], 11.4 nM.
In the case of `C[C@](O)(COc1ccc(C#N)cc1)C(=O)Nc1ccc(C#N)c(C(F)(F)F)c1` [Ostarine, reference compound], in series [1], the “luteinizing hormone (LH) levels” value is reported as “concurrent decrease of LH levels”, the plasma drug concentration result is “dose dependent increase” and the “weights … compared to prostate” value is “dose dependent selective increase in weights of levator ani compared to prostate”.
In the case of `CCC(=O)O[C@H]1CC[C@H]2[C@@H]3CCC4=CC(=O)CC[C@]4(C)[C@H]3CC[C@]12C` [Testosterone Propionate, reference compound], in series [1], the “weights … compared to prostate” value is given as “did not show any selectivity on levator ani versus prostate”.

For the origin of these results see patent US9051326B2, “Pyrazoline derivatives and their use as selective androgen receptor modulators” (NOVARTIS AG, priority 2011, dated 2015).
